Measured values taken from paper PMC5706701, “Development of a homogenous high-throughput assay for inositol hexakisphosphate kinase 1 activity” (PLoS ONE, 2017).
Counter-ions that a name gives are not always drawn. Values belong to the compound of their own block, whether it stands above or below them.

Molecular target: T1, Human IP6K1 (Homo sapiens, UniProt Q92551)
T1 construct: GST (N, cleaved yes); made in house; host or cells: C43 E. coli, pGEX-6P-2
Experiment: IP6K1 high-throughput screen of the Sigma LOPAC (ADP-Glo Max, single point);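 note: final compound concentration 10µM in 5% DMSO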
Format: biochemical

[1] = LOPAC single-point screen, ADP-Glo Max raw signal per well
[2] = LOPAC single-point screen, Z-score against plate average and StDev
[3] = LOPAC single-point screen, ADP-Glo Max luminescence raw signal per well
[4] = LOPAC single-point screen, Z-score from plate average and StDev
[5] = LOPAC single-point screen, Z-score from raw signal with plate average and StDev
[6] = Sigma LOPAC single-point screen, ADP-Glo Max raw signal per well
[7] = Sigma LOPAC single-point screen, Z-score from plate average and StDev
[8] = LOPAC single-point screen, Z-score relative to plate average and StDev

T1 sequence (Q92551 whole entry): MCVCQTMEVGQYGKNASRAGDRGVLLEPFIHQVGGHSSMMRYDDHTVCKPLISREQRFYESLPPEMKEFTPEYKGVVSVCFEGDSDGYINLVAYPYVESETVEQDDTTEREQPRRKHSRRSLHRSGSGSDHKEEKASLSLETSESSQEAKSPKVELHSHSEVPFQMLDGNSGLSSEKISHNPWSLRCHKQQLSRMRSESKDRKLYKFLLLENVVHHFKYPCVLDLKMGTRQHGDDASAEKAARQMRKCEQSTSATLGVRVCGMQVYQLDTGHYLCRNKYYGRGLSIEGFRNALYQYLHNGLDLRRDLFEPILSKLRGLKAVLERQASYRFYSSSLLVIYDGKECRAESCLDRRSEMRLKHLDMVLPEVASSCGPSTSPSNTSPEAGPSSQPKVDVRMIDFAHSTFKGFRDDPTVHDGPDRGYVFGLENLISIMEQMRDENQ

Compound: CCCCCCCCCCCCCC(=O)O[C@@H]1[C@@H](C)[C@@]2(O)[C@@H](C=C(CO)C[C@]3(O)C(=O)C(C)=C[C@@H]23)[C@@H]2C(C)(C)[C@]12OC(C)=O [Phorbol 12-myristate 13-acetate]
Raw Signal [1]: 57693
Z-score [2]: 0.3243

Raw Signal [3]: 62776
Z-score [4]: 1.408
Compound: C[C@@H]1O[C@@H]1P(=O)(O)O [Phosphomycin disodium]

Raw Signal [1]: 54653
Z-score [5]: -0.2663
Compound: O=C(O)CP(=O)(O)O [Phosphonoacetic acid]

Compound: CC(C)C[C@H](NP(=O)([O-])O[C@H]1O[C@H](C)[C@@H](O)[C@H](O)[C@@H]1O)C(=O)N[C@@H](Cc1c[nH]c2ccccc12)C(=O)[O-].[Na+].[Na+] [Phosphoramidon disodium]
Raw Signal [1]: 56521
Z-score [2]: 0.0966

Compound: O=C([O-])CCC(NC(=O)c1ccccc1C(=O)[O-])C(=O)[O-].[Na+].[Na+].[Na+] [Phthalamoyl-L-glutamic acid trisodium]
Raw Signal [6]: 58114
Z-score [7]: 0.4061

Raw Signal [3]: 49635
Z-score [8]: -0.7996
Compound: Oc1cc(O)cc(/C=C/c2ccc(O)c(O)c2)c1 [Piceatannol]

Raw Signal [1]: 56073
Z-score [2]: 0.009557
Compound: COc1ccc(C(=O)NCc2cccnc2)cc1C(=O)NCc1cccnc1 [Picotamide]

Raw Signal [6]: 59730
Z-score [7]: 0.8967
Compound: CC[C@@H]1C(=O)OC[C@@H]1Cc1cncn1C [Pilocarpine nitrate]

Raw Signal [1]: 53926
Z-score [2]: -0.07855
Compound: O=c1[nH]c2ccccc2n1C1CCN(CCCC(c2ccc(F)cc2)c2ccc(F)cc2)CC1 [Pimozide]

Raw Signal [1]: 55394
Z-score [5]: -0.1224
Compound: CC(N/C(=N\C#N)Nc1ccncc1)C(C)(C)C (centres unmarked) [Pinacidil]

Raw Signal [3]: 62809
Z-score [4]: 1.414
Compound: CC(C)NCC(O)COc1cccc2[nH]ccc12 (centres unmarked) [Pindolol]

Compound: O=S(=O)(O)C1CCNCC1 [Piperidine-4-sulphonic acid]
Raw Signal [1]: 54931
Z-score [5]: -0.2123

Raw Signal [6]: 58233
Z-score [7]: 0.6451
Compound: NC(=O)CN1CCCC1=O [Piracetam]

Raw Signal [1]: 53743
Z-score [5]: -0.4431
Compound: Cc1nc2ccccn2c(=O)c1CCN1CCC(C(=O)c2ccc(F)cc2)CC1 [Pirenperone]

Raw Signal [6]: 62871
Z-score [7]: 1.33
Compound: CN1CCN(CC(=O)N2c3ccccc3C(=O)Nc3cccnc32)CC1 [Pirenzepine dihydrochloride]

Raw Signal [1]: 52089
Z-score [5]: -0.3872
Compound: Cc1ccc(=O)n(-c2ccccc2)c1 [Pirfenidone]

Compound: O=C(O)/C=C\C(=O)O.c1cnc(N2CCN(Cc3ccc4c(c3)OCO4)CC2)nc1 [Piribedil maleate]
Raw Signal [6]: 62540
Z-score [7]: 1.266

Raw Signal [6]: 59564
Z-score [7]: 0.8688
Compound: CN1C(C(=O)Nc2ccccn2)=C(O)c2ccccc2S1(=O)=O [Piroxicam]

Compound: COc1cc([C@@H]2c3cc4c(cc3[C@H](O)[C@H]3COC(=O)[C@H]23)OCO4)cc(OC)c1OC [Podophyllotoxin]
Raw Signal [3]: 50929
Z-score [8]: -0.5821

Raw Signal [1]: 53749
Z-score [5]: -0.1083
Compound: O=C(C1CCCCC1)N1CC(=O)N2CCc3ccccc3C2C1 (centres unmarked) [Praziquantel]

Raw Signal [1]: 56945
Z-score [2]: 0.179
Compound: COc1cc2nc(N3CCN(C(=O)c4ccco4)CC3)nc(N)c2cc1OC [Prazosin hydrochloride]

Compound: CC(=O)[C@H]1CC[C@H]2[C@@H]3CC=C4C[C@@H](OS(=O)(=O)[O-])CC[C@]4(C)[C@H]3CC[C@]12C.[Na+] [Pregnenolone sulfate sodium]
Raw Signal [3]: 62981
Z-score [4]: 1.352

Raw Signal [1]: 55610
Z-score [2]: -0.08039
Compound: CCCNC(C)C(=O)Nc1ccccc1C (centres unmarked) [Prilocaine hydrochloride]

Raw Signal [6]: 58828
Z-score [7]: 0.5448
Compound: CCC1(c2ccccc2)C(=O)NCNC1=O [Primidone]

Raw Signal [3]: 51793
Z-score [8]: -0.822
Compound: CCN(CC)CCNC(=O)c1ccc(N)cc1 [Procainamide hydrochloride]
